The IC50 is the concentration that inhibits the measured activity by half. Low values mean higher potency, high ones lower potency.

SMILES strings stand for the structures.

The target in assay [1] is Full-length PRMT5 enzyme co-expressed with His6-MEP50 (Homo sapiens (Human), UniProt O14744). As to the kind of experiment: PRMT5 Biochemical Assay. Particulars: histone H4 derived peptide substrate, Transcreener EPIGEN methyltransferase assay, 4 hours at 37 degree Celsius. The protocol:
Compounds of the invention may be tested for in vitro activity in the following assay: A histone H4 derived peptide is used as substrate (amino acid sequence: […]NH2). Full-length PRMT5 enzyme (NCBI Reference sequence NP_006100.2) was co-expressed with His6-MEP50 in insect cells and purified via Nickel immobilized metal affinity and gel filtration chromatography (“the enzyme”).
The 6 μL reactions are run in Greiner brand black 384-well low volume assay plates. All reactions contained assay buffer (phosphate buffered saline, 0.01% (v/v) Tween-20, 0.01% (w/v) albumin from chicken egg white, 1 mM Dithiothreitol, 1 μM peptide substrate, 1 μM S-Adenosyl methionine, and 15 ng/reaction enzyme, with the enzyme being omitted from negative control reactions. Compounds were added in a volume of 100 nL from dilution series prepared in DMSO, positive and negative control reactions receiving the same volume DMSO without compound. The plates were sealed with adhesive seals and incubated for 4 hours at 37 degree Celsius. Reaction progress was measured using the Transcreener™ EPIGEN methyltransferase assay (BellBrook Labs, Madison, Wis.) as recommended by the manufacturer. To each reaction 2 μL detection mix were added, containing coupling enzymes, fluorescence polarisation tracer, and AMP antibody. Plates were incubated for 90 minutes before being read on a PerkinElmer EnVision™ plate reader in fluorescence polarisation mode.

In assay [2] the test system is symmetrical dimethylation of arginine (Di-Methyl Histone H4 Arginine 3) in TE11 cells. As to the kind of experiment: cells. Particulars: Homo sapiens, TE-11, 72 h. The protocol: Compounds of the invention may be tested for potency to inhibit symmetrical dimethylation of arginine in the following assay:
The cell line TE11 was seeded at a density of 6,000 cells per well in 96 well optical quality tissue culture plates in DME medium and 10% foetal bovine serum, and allowed to adhere for 5 hours under standard culture conditions (37 degree Celsius, 5% CO2). […] After incubation for 72 hours, the cells were fixed with 3.7% formaldehyde in PBS for 30 minutes at room temperature, washed with phosphate buffer saline and blocked with Odyssey blocking buffer (LI-COR, Lincoln, Nebr.). Rabbit anti-Di-Methyl Histone H4 Arginine 3 specific antibody (Epigentek) in Odyssey blocking buffer was added and incubated for 14 hours at 4 degree Celsius.

Sequence of Full-length PRMT5 enzyme co-expressed with His6-MEP50 (O14744 whole entry): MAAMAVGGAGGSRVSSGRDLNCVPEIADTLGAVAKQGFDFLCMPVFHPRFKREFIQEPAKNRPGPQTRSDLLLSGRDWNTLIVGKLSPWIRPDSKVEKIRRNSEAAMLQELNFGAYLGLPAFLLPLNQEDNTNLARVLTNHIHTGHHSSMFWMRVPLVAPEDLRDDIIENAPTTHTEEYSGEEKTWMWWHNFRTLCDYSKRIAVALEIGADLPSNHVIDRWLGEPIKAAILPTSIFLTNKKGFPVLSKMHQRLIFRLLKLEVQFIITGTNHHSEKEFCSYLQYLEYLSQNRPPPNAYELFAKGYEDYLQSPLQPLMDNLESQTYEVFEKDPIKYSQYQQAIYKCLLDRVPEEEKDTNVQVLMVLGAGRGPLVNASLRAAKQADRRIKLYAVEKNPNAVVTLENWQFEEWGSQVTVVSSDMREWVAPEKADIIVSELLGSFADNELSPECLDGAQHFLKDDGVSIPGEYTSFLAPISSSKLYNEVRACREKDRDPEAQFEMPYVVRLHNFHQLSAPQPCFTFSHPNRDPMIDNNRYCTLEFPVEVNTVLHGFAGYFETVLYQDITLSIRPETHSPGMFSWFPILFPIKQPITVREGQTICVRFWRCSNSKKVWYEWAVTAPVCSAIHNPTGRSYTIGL
Sequence of Full-length PRMT5 enzyme co-expressed with His6-MEP50 (Q9BQA1 whole entry partner): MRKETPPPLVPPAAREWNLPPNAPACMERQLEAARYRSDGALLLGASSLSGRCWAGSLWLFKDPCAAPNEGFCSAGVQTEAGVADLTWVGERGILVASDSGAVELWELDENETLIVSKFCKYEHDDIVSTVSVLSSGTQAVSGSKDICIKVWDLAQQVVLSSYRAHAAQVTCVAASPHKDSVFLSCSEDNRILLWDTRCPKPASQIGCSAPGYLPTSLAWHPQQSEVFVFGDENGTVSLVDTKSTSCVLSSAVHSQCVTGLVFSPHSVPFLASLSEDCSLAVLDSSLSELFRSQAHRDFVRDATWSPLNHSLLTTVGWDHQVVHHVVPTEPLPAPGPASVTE

Consider `Cc1nn(CC(O)CNC2Cc3ccccc3C2)c(=O)c2ccccc12` (centres unmarked) [Compound 1, 2-(3-((2,3-Dihydro-1H-inden-2-yl)amino)-2-hydroxypropyl)-4-methylphthalazin-1(2H)-one], for which, in assay [1], the IC50 stood at 4530 nM.
For the compound `Cc1nn(C[C@@H](O)CNC2Cc3ccccc3C2)c(=O)c2ccc(C(=O)N3C4CCC3COC4)cc12` [Compound 2, 6-(3-Oxa-8-azabicyclo[3.2.1]octane-8-carbonyl)-2-((S)-3-((2,3-dihydro-1H-Inden-2-yl)amino)-2-hydroxypropyl)-4-methylphthalazin-1(2H)-one], the figures for the 50% inhibitory concentration (IC50) in assay [1] and in assay [2] were 170 nM and 18 nM, respectively.
Consider `CCc1nn(C[C@@H](O)CNC2Cc3ccccc3C2)c(=O)c2ccc(C(=O)N3C4CCC3COC4)cc12` [Compound 3, 6-(3-Oxa-8-azabicyclo[3.2.1]octane-8-carbonyl)-2-((S)-3-((2,3-dihydro-1H-Inden-2-yl)amino)-2-hydroxypropyl)-4-ethylphthalazin-1(2H)-one], for which the values for the IC50 in assay [1] and in assay [2] were 30 nM and 1.9 nM, respectively.

Values taken from US10961256B2, “PRMT5 inhibitors” (priority 2016, dated 2021).
